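In this assay, cells in 96-well plates receive the compound at five concentrations for 48 hours. Endpoints are linearly interpolated between the surrounding concentrations. GI50 marks 50% less growth. TGI marks complete inhibition of growth.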
Columns and labels:
Experiment in all cases: DTP human tumour cell line panel, 48 h
786-0 renal = test system: 786-0 renal
A498 renal = test system: A498 renal
A549 NSCLC = test system: A549 NSCLC
ACHN renal = test system: ACHN renal
BT-549 breast = test system: BT-549 breast
CAKI-1 renal = test system: CAKI-1 renal
CCRF-CEM leukemia = test system: CCRF-CEM leukemia
COLO 205 colon = test system: COLO 205 colon
DU-145 prostate = test system: DU-145 prostate
EKVX NSCLC = test system: EKVX NSCLC
HCC-2998 colon = test system: HCC-2998 colon
HCT-116 colon = test system: HCT-116 colon
HCT-15 colon = test system: HCT-15 colon
HL-60(TB) leukemia = test system: HL-60(TB) leukemia
HOP-62 NSCLC = test system: HOP-62 NSCLC
HOP-92 NSCLC = test system: HOP-92 NSCLC
HS 578T breast = test system: HS 578T breast
HT29 colon = test system: HT29 colon
IGROV1 ovarian = test system: IGROV1 ovarian
K-562 leukemia = test system: K-562 leukemia
KM12 colon = test system: KM12 colon
LOX IMVI melanoma = test system: LOX IMVI melanoma
M14 melanoma = test system: M14 melanoma
MALME-3M melanoma = test system: MALME-3M melanoma
MCF7 breast = test system: MCF7 breast
MDA-MB-231 breast = test system: MDA-MB-231 breast
MDA-MB-435 = test system: MDA-MB-435
MOLT-4 leukemia = test system: MOLT-4 leukemia
NCI-H226 lung = test system: NCI-H226 lung
NCI-H23 lung = test system: NCI-H23 lung
NCI-H460 lung = test system: NCI-H460 lung
NCI-H522 lung = test system: NCI-H522 lung
NCI/ADR-RES ovarian = test system: NCI/ADR-RES ovarian
OVCAR-3 ovarian = test system: OVCAR-3 ovarian
OVCAR-4 ovarian = test system: OVCAR-4 ovarian
OVCAR-5 ovarian = test system: OVCAR-5 ovarian
OVCAR-8 ovarian = test system: OVCAR-8 ovarian
PC-3 prostate = test system: PC-3 prostate
RPMI-8226 leukemia = test system: RPMI-8226 leukemia
RXF 393 renal = test system: RXF 393 renal
SF-268 CNS = test system: SF-268 CNS
SF-295 CNS = test system: SF-295 CNS
SF-539 CNS = test system: SF-539 CNS
SK-MEL-2 melanoma = test system: SK-MEL-2 melanoma
SK-MEL-28 melanoma = test system: SK-MEL-28 melanoma
SK-MEL-5 melanoma = test system: SK-MEL-5 melanoma
SK-OV-3 ovarian = test system: SK-OV-3 ovarian
SN12C renal = test system: SN12C renal
SNB-19 CNS = test system: SNB-19 CNS
SNB-75 CNS = test system: SNB-75 CNS
SR leukemia = test system: SR leukemia
SW-620 colon = test system: SW-620 colon
T-47D breast = test system: T-47D breast
TK-10 renal = test system: TK-10 renal
U251 CNS = test system: U251 CNS
UACC-62 melanoma = test system: UACC-62 melanoma
UO-31 renal = test system: UO-31 renal

With `COc1cccc(Oc2ccccc2NC(=O)CNC(=O)c2cccc3ccccc23)c1` the GI50 (786-0 renal) was 183 nM, the TGI (786-0 renal) was greater than 25000 nM and the GI50 (A498 renal) was 115 nM. The TGI (A498 renal) was 2110 nM, the GI50 (A549 NSCLC) was 315 nM and the TGI (A549 NSCLC) was greater than 25000 nM. It also gave a GI50 (ACHN renal) of 398 nM, a TGI (ACHN renal) greater than 25000 nM and a GI50 (BT-549 breast) of 298 nM. It also gave a TGI (BT-549 breast) of 10200 nM, a GI50 (CAKI-1 renal) of 917 nM and a TGI (CAKI-1 renal) greater than 25000 nM. For the same compound, the GI50 (CCRF-CEM leukemia) was 360 nM, the TGI (CCRF-CEM leukemia) was greater than 25000 nM and the GI50 (COLO 205 colon) was 283 nM. The TGI (COLO 205 colon) was 949 nM, the GI50 (DU-145 prostate) was 703 nM and the TGI (DU-145 prostate) was greater than 25000 nM. The GI50 (EKVX NSCLC) was 1280 nM, the TGI (EKVX NSCLC) was greater than 25000 nM and the GI50 (HCC-2998 colon) was 1250 nM. It also gave a TGI (HCC-2998 colon) greater than 25000 nM, a GI50 (HCT-116 colon) of 96.2 nM and a TGI (HCT-116 colon) of 3770 nM. It also gave a GI50 (HCT-15 colon) of 129 nM, a TGI (HCT-15 colon) greater than 25000 nM and a GI50 (HL-60(TB) leukemia) of 81 nM. It also gave a TGI (HL-60(TB) leukemia) of 237 nM, a GI50 (HOP-62 NSCLC) of 302 nM and a TGI (HOP-62 NSCLC) greater than 25000 nM. It also gave a GI50 (HOP-92 NSCLC) of 202 nM, a TGI (HOP-92 NSCLC) of 14900 nM and a GI50 (HS 578T breast) of 381 nM. It also gave a TGI (HS 578T breast) greater than 25000 nM, a GI50 (HT29 colon) of 110 nM and a TGI (HT29 colon) of 1040 nM. For the same compound, the GI50 (IGROV1 ovarian) was 1040 nM, the TGI (IGROV1 ovarian) was greater than 25000 nM and the GI50 (K-562 leukemia) was 130 nM. The TGI (K-562 leukemia) was greater than 25000 nM, the GI50 (KM12 colon) was 190 nM and the TGI (KM12 colon) was 19600 nM. The GI50 (LOX IMVI melanoma) was 267 nM, the TGI (LOX IMVI melanoma) was greater than 25000 nM and the GI50 (M14 melanoma) was 157 nM. It also gave a TGI (M14 melanoma) greater than 25000 nM, a GI50 (MALME-3M melanoma) of 16900 nM and a TGI (MALME-3M melanoma) greater than 25000 nM. It also gave a GI50 (MCF7 breast) of 100 nM, a TGI (MCF7 breast) greater than 25000 nM and a GI50 (MDA-MB-231 breast) of 776 nM. For the same compound, the TGI (MDA-MB-231 breast) was 7680 nM, the GI50 (MDA-MB-435) was 71.1 nM and the TGI (MDA-MB-435) was 256 nM. For the same compound, the GI50 (MOLT-4 leukemia) was 654 nM, the TGI (MOLT-4 leukemia) was greater than 25000 nM and the GI50 (NCI-H226 lung) was 2490 nM. It also gave a TGI (NCI-H226 lung) greater than 25000 nM, a GI50 (NCI-H23 lung) of 735 nM and a TGI (NCI-H23 lung) greater than 25000 nM. For the same compound, the GI50 (NCI-H460 lung) was 298 nM, the TGI (NCI-H460 lung) was 4530 nM and the GI50 (NCI-H522 lung) was 176 nM. It also gave a TGI (NCI-H522 lung) of 2020 nM, a GI50 (NCI/ADR-RES ovarian) of 238 nM and a TGI (NCI/ADR-RES ovarian) of 5690 nM. It also gave a GI50 (OVCAR-3 ovarian) of 99.9 nM, a TGI (OVCAR-3 ovarian) of 1250 nM and a GI50 (OVCAR-4 ovarian) of 770 nM. It also gave a TGI (OVCAR-4 ovarian) greater than 25000 nM, a GI50 (OVCAR-5 ovarian) of 1130 nM and a TGI (OVCAR-5 ovarian) greater than 25000 nM. For the same compound, the GI50 (OVCAR-8 ovarian) was 684 nM, the TGI (OVCAR-8 ovarian) was greater than 25000 nM and the GI50 (PC-3 prostate) was 284 nM. The TGI (PC-3 prostate) was greater than 25000 nM, the GI50 (RPMI-8226 leukemia) was 953 nM and the TGI (RPMI-8226 leukemia) was 13700 nM. For the same compound, the GI50 (RXF 393 renal) was 165 nM, the TGI (RXF 393 renal) was 2190 nM and the GI50 (SF-268 CNS) was 547 nM. It also gave a TGI (SF-268 CNS) greater than 25000 nM, a GI50 (SF-295 CNS) of 111 nM and a TGI (SF-295 CNS) greater than 25000 nM. It also gave a GI50 (SF-539 CNS) of 225 nM, a TGI (SF-539 CNS) of 1070 nM and a GI50 (SK-MEL-2 melanoma) of 181 nM. For the same compound, the TGI (SK-MEL-2 melanoma) was greater than 25000 nM, the GI50 (SK-MEL-28 melanoma) was 4350 nM and the TGI (SK-MEL-28 melanoma) was greater than 25000 nM. For the same compound, the GI50 (SK-MEL-5 melanoma) was 216 nM, the TGI (SK-MEL-5 melanoma) was 3650 nM and the GI50 (SK-OV-3 ovarian) was 494 nM. For the same compound, the TGI (SK-OV-3 ovarian) was 12300 nM, the GI50 (SN12C renal) was 1440 nM and the TGI (SN12C renal) was greater than 25000 nM. It also gave a GI50 (SNB-19 CNS) of 617 nM, a TGI (SNB-19 CNS) greater than 25000 nM and a GI50 (SNB-75 CNS) of 128 nM. For the same compound, the TGI (SNB-75 CNS) was greater than 25000 nM, the GI50 (SR leukemia) was 115 nM and the TGI (SR leukemia) was greater than 25000 nM. For the same compound, the GI50 (SW-620 colon) was 164 nM, the TGI (SW-620 colon) was greater than 25000 nM and the GI50 (T-47D breast) was 138 nM. The TGI (T-47D breast) was 17600 nM, the GI50 (TK-10 renal) was 1580 nM and the TGI (TK-10 renal) was greater than 25000 nM. The GI50 (U251 CNS) was 242 nM, the TGI (U251 CNS) was greater than 25000 nM and the GI50 (UACC-62 melanoma) was 209 nM. For the same compound, the TGI (UACC-62 melanoma) was greater than 25000 nM, the GI50 (UO-31 renal) was 1800 nM and the TGI (UO-31 renal) was greater than 25000 nM.

Reference: PubChem BioAssay (NCI)
